Experimental data published in patent US9120779B2, “Inhibitors of HCV NS5A” (PRESIDIO PHARMACEUTICALS, INC., priority 2008, dated 2015).
pEC50: −log10 of the molar value.

tested on: HCV genotype 1b replicon in Huh 7 cells; test: HCV replicon assay (luciferase readout, 1b_Huh-Luc/Neo-ET cell line); format: cell-based; conditions: Hepatitis C virus, Huh-7, 72 h, read-out: Inhibition of HCV genotype 1b, Table 3, 72 h incubation
Protocol: Biological activity of the compounds of the invention was determined using an HCV replicon assay. The 1b_Huh-Luc/Neo-ET cell line persistently expressing a bicistronic genotype 1b replicon in Huh 7 cells was obtained from R^eBLikon GMBH. This cell line was used to test compound inhibition using luciferase enzyme activity readout as a measurement of compound inhibition of replicon levels.
On Day 1 (the day after plating), each compound is added in triplicate to the cells. Plates incubated for 72 h prior to running the luciferase assay. Enzyme activity was measured using a Bright-Glo Kit (cat. number E2620) manufactured by Promega Corporation. The following equation was used to generate a percent control value for each compound. % Control=(Average Compound Value/Average Control)*100
The EC50 value was determined using GraphPad Prism and the following equation: Y=Bottom+(Top−Bottom)/(1+10^((Log IC50−X)*HillSlope))
EC50 values of compounds are repeated several times in the replicon assay.
Example compounds of the disclosed invention are illustrated in Tables 1-9 attached as appendices. The tables show inhibitory activity of many of the example compounds with respect to HCV 1b. […] The tables further provide mass spectrometry results for the synthesized example compounds.

Structure (SMILES)	pEC50
CC(C)(C)OC(=O)N[C@@H](C(=O)N1CCC[C@H]1c1ncc(-c2cc(F)c(N3CCC(c4cnc([C@@H]5CCCCN5C(=O)[C@H](NC(=O)OC(C)(C)C)c5ccccc5)[nH]4)CC3)c(F)c2)[nH]1)c1ccccc1 [compound 483]	> 9.00
O=C(N[C@@H](C(=O)N1CCC[C@H]1c1ncc(-c2cc(F)c(N3CCC(c4cnc([C@@H]5CCCCN5C(=O)[C@H](NC(=O)C5CC5)c5ccccc5)[nH]4)CC3)c(F)c2)[nH]1)c1ccccc1)C1CC1 [compound 484]	> 9.00
O=C(N[C@@H](C(=O)N1CCC[C@H]1c1ncc(-c2cc(F)c(N3CCC(c4cnc([C@@H]5CCCN5C(=O)[C@H](NC(=O)C5CC5)c5ccccc5)[nH]4)CC3)c(F)c2)[nH]1)c1ccccc1)C1CC1 [compound 485]	> 9.00
COC(=O)N[C@@H](C(=O)N1CCC[C@H]1c1ncc(-c2cc(F)c(N3CCC(c4cnc([C@@H]5CCCCN5C(=O)[C@H](NC(=O)C5CC5)c5ccccc5)[nH]4)CC3)c(F)c2)[nH]1)c1ccccc1 [compound 486]	> 9.00
COC(=O)N[C@@H](C(=O)N1CCC[C@H]1c1ncc(-c2cc(F)c(N3CCC(c4cnc([C@@H]5CCCCN5C(=O)[C@H](NC(=O)OC)c5ccccc5)[nH]4)CC3)c(F)c2)[nH]1)c1ccccc1 [compound 487]	> 9.00
COC(=O)N[C@@H](C(=O)N1CCC[C@H]1c1ncc(-c2cc(F)c(N3CCC(c4cnc([C@@H]5CCCN5C(=O)[C@H](NC(=O)N5CCCCC5)c5ccccc5)[nH]4)CC3)c(F)c2)[nH]1)c1ccccc1 [compound 488]	> 9.00
COC(=O)N[C@@H](C(=O)N1CCC[C@H]1c1ncc(-c2cc(F)c(N3CCC(c4cnc([C@@H]5COCCN5C(=O)[C@H](NC(=O)OC(C)(C)C)c5ccccc5)[nH]4)CC3)c(F)c2)[nH]1)c1ccccc1 [compound 489]	> 9.00
COC(=O)N[C@H](C(=O)N1CCC[C@H]1c1ncc(C2CCN(c3c(F)cc(-c4cnc([C@@H]5CCCN5C(=O)[C@H](NC(=O)OC)c5ccccc5)[nH]4)cc3F)CC2)[nH]1)C(C)C [compound 490]	> 9.00
COC(=O)N[C@@H](C(=O)N1CCCC[C@H]1c1ncc(C2CCN(c3c(F)cc(-c4cnc([C@@H]5CCCN5C(=O)[C@@H](c5ccccc5)N5CCCCC5)[nH]4)cc3F)CC2)[nH]1)c1ccccc1 [compound 491]	> 9.00
COC(=O)N[C@@H](C(=O)N1CCC[C@H]1c1ncc(-c2cc(F)c(N3CCC(c4cnc([C@@H]5COCCN5C(=O)[C@H](NC(=O)OC)c5ccccc5)[nH]4)CC3)c(F)c2)[nH]1)c1ccccc1 [compound 492]	> 9.00
COC(=O)N[C@@H](C(=O)N1CCCC[C@H]1c1ncc(C2CCN(c3c(F)cc(-c4cnc([C@@H]5CCCN5C(=O)[C@H](NC(=O)C5CC5)c5ccccc5)[nH]4)cc3F)CC2)[nH]1)c1ccccc1 [compound 493]	> 9.00
COC(=O)N[C@@H](C(=O)N1CCC[C@H]1c1ncc(-c2cc(F)c(N3CCC(c4cnc([C@@H]5COCCN5C(=O)[C@H](NC(=O)C5CC5)c5ccccc5)[nH]4)CC3)c(F)c2)[nH]1)c1ccccc1 [compound 494]	> 9.00
O=C(N[C@@H](C(=O)N1CCC[C@H]1c1ncc(-c2cc(F)c(N3CCC(c4cnc([C@@H]5COCCN5C(=O)[C@@H](c5ccccc5)N5CCCCC5)[nH]4)CC3)c(F)c2)[nH]1)c1ccccc1)C1CC1 [compound 495]	> 9.00
COC(=O)N[C@@H](C(=O)N1CCC[C@H]1c1ncc(-c2cc(F)c(N3CCC(c4cnc([C@@H]5CCCCN5C(=O)[C@@H](c5ccccc5)N5CCCCC5)[nH]4)CC3)c(F)c2)[nH]1)c1ccccc1 [compound 496]	> 9.00
COC(=O)N[C@@H](C(=O)N1CCOC[C@H]1c1ncc(C2CCN(c3c(F)cc(-c4cnc([C@@H]5CCCN5C(=O)[C@H](NC(=O)OC(C)(C)C)c5ccccc5)[nH]4)cc3F)CC2)[nH]1)c1ccccc1 [compound 497]	> 9.00
COC(=O)N[C@@H](C(=O)N1CCC[C@H]1c1ncc(-c2cc(F)c(N3CCC(c4cnc([C@@H]5CCCN5C(=O)[C@H](NC(=O)OC)C(C)C)[nH]4)CC3)c(F)c2)[nH]1)C(C)C [compound 498]	8.00 to 9.00
